“Also recorded” adds a separate entry of the source.
Assays:
[1] = tested on: mixed cortical cell cultures containing neurons and glia; test: Fe2+-induced free radical neurotoxicity in mixed cortical cell cultures (LDH release); assay type: cell-based, mouse; details: for Fe^2+-induced free radical neurotoxicity, effect in words: 50 μM Fe^2+, 24 hr, 2-Hydroxy-TTBA or 2-Hydroxy-TPEA at doses as low as 0.3 μM, vitamin E at higher doses, Li^+ 10 mM (legend 5 mM); for Fe^2+-induced neuronal death (oxidative stress), effect in words: FIG. 5A: 30 μM Fe^2+, 24 h, 1 μM 2-hydroxy TTBA (submicromolar), 5 mM Li^+; for IC50: Mus musculus, Neuron, 50 μM FeCl2, neuronal death 24 hr later (LDH), read-out: IC50 (50% protection against Fe^2+-induced free radical neurotoxicity)
Experimental: (§1) Mouse cortical cell cultures (DIV 11-15) were exposed to 50 μM Fe^2+ or 10 mM BSO, alone or with inclusion of 5 mM Li^+. Neuronal death was analyzed 24 hr later by measuring levels of LDH released into the bathing medium, mean±SEM (n=9-12 culture wells per condition).
Mouse cortical cell cultures (DIV 11-15) were exposed to 30 μM Fe^2+ or 10 mM BSO, alone or in the presence of 1 μM 2-hydroxy TTBA, 10-100 μM vitamin E, or 5 mM Li^+.
(§2) For mixed neuron-glia culture, mouse cerebral cortices were removed from brains of the 11-15 day-old-fetal mice (E11-15), gently triturated and plated on 24 well plates (2×10^5 cells/plate) precoated with 100 μg/ml poly-D-lysine and 4 pg/ml laminin. Cultures were maintained at 37° C. in a humidified 5% CO2 atmosphere.
After 7-8 days in vitro (DIV 7-8), 10 μM cytosine arabinofuranoside (Ara-C) was included to halt overgrowth of glia. The drug treatment was carried on DIV 11-15 cortical cell culture.
Oxidative stress was induced by exposing mixed cortical cell cultures containing neurons and glia (DIV 11-15) to 50 μM FeCl2, a hydroxyl radical-producing transition metal via a Fenton reaction, or 10 mM DL-buthionine-[S,R]-sulfoximine (BSO), a glutathione depleting agent.

[2] = tested on: mixed cortical cell cultures containing neurons and glia; test: BSO-induced free radical neurotoxicity in mixed cortical cell cultures (LDH release); assay type: cell-based, mouse; details: for BSO-induced free radical neurotoxicity, effect in words: 10 mM BSO, 24 hr, 2-Hydroxy-TTBA or 2-Hydroxy-TPEA at doses as low as 0.3 μM, Li^+ 10 mM (legend 5 mM); for BSO-induced neuronal death (oxidative stress), effect in words: FIG. 5A: 10 mM BSO, 24 h, 1 μM 2-hydroxy TTBA (submicromolar), 5 mM Li^+
Experimental: Mouse cortical cell cultures (DIV 11-15) were exposed to 10 mM BSO, alone or with indicated doses of 2-Hydroxy-TTBA or 2-Hydroxy-TPEA. Neuronal death was analyzed 24 hr later by measuring levels of LDH released into the bathing medium, mean±SEM (n=9-12 culture wells per condition). *, Significant difference from BSO alone, p<0.05 using ANOVA and Student-Newman-Keuls test.
as §1
Mouse cortical cell cultures (DIV 11-15) were exposed to 30 μM Fe^2+ or 10 mM BSO, alone or in the presence of 1 μM 2-hydroxy TTBA, 10-100 μM vitamin E, or 5 mM Li^+. Neuronal death was analyzed 24 h later by measuring LDH efflux in the bathing media (mean±SEM, n=12). *, Significant difference from the relevant control (Fe^2+ or BSO alone), p<0.05 using ANOVA and Student-Newman-Keuls test.
as §2, with “atmosphere. Plating media consist of Eagles minimal essential media (MEM, Earles salts, supplied glutamine-free) supplemented with 5% horse serum, 5% fetal bovine serum, 26.5 mM bicarbonate, 2 mM glutamine, and 21 mM glucose.” for “atmosphere.”
After 7-8 days in vitro (DIV 7-8), 10 μM cytosine arabinofuranoside (Ara-C) was included to halt overgrowth of glia. The drug treatment was carried on DIV 11-15 cortical cell culture. Overall neuronal cell injury was assessed by measuring amount of lactate dehydrogenase (LDH) released into the bathing medium 24 hr after neurotoxic insults as previously described (Koh and Choi, J Neurosci Methods 20:83-90, 1987).
Oxidative stress was induced by exposing mixed cortical cell cultures containing neurons and glia (DIV 11-15) to 50 μM FeCl2, a hydroxyl radical-producing transition metal via a Fenton reaction, or 10 mM DL-buthionine-[S,R]-sulfoximine (BSO), a glutathione depleting agent. Widespread neuronal death was observed 24 hours later. […] Administration of vitamin E prevented Fe^2+-induced free radical neurotoxicity at higher doses. This implies that 2-Hydroxy-TTBA or 2-Hydroxy-TPEA is a potent neuroprotectant against oxidative stress.

[3] = tested on: cortical cell cultures containing neurons and glia; test: cyclosporine A or calyculin A-induced neuronal cell apoptosis in cortical cell cultures; assay type: cell-based, mouse; details: 20 μM cyclosporine A, 24 hr; 100 μM Vitamin E, 1 μM 2-hydroxy-TTBA, 1 μM 2-hydroxy-TPEA
Experimental: Mouse cortical cell cultures (DIV 10-12) were exposed to 20 μM cyclosporine A or 10 nM calculin A, alone or with inclusion of 0.3-30 mM Li. Neuronal death was analyzed 24-28 hr later by measuring levels of LDH released into the bathing medium, mean±SEM (n=9-12 culture wells per condition).
Mouse cortical cell cultures (DIV 10-12) were exposed to 20 μM cyclosporine A, alone or with 100 μM Vitamin E, 1 μM 2-hydroxy-TTBA, or 1 μM 2-hydroxy-TPEA. Neuronal death was analyzed 24 hr later by measuring levels of LDH released into the bathing medium, mean±SEM (n=9-12 culture wells per condition).
Cortical cell cultures containing neurons and glia at 10-12 days in vitro (DIV 10-12) were exposed to 20 μM cyclosporine A (CsA) or 10 nM caliculin A (cal A). Neurons underwent widespread apoptosis 24 hr later as previously reported (McDonald et al., 1996; Ko et al., 2000). […] This implies that Li^+ and the neuroprotective drugs (vitamin E, trolox, BAS, CBAS, FBAS, TBAS, PBAS, MBAS, NPAA, NPPAA, 2-Hydroxy-TTBA, and 2-Hydroxy-TPEA) selectively prevent neuronal cell apoptosis and free radical-mediated necrosis, respectively.

G93A mice = test: inflammatory cytokine mRNA in lumbar segments of G93A mice (RT-PCR); assay type: in vivo, mouse; details: 16 week-old G93A mice, 5 mg/kg/day or 20 mg/kg/day in chow
Experimental: Lumbar segments of 16 week-old G93A mice fed with general chow only, and 16 week-old G93A mice fed with chow containing 5 mg/kg/day or 20 mg/kg/day of chemical 01 were extracted and their RNA were separated. The mRNA expression degrees of TNF-a and IL-16, cytokines inducing inflammation, were evaluated through RT-PCT.

G93A mouse = test: oxidative toxicity in G93A mouse (nitrotyrosine immunostaining); assay type: in vivo; details: G93A mice at ages of 10 weeks
Experimental: Reactive oxygen species (ROS) produced in progress of ALS disease was evaluated in G93A mouse.

SMILES | Fe^2+-induced free radical neurotoxicity, effect in words [1] | Fe^2+-induced neuronal death (oxidative stress), effect in words ([1]; listed as 2-hydroxy TTBA) | Fe^2+-induced neuronal death (oxidative stress), effect in words ([1]; listed as 2-hydroxy-TTBA) | IC50 [1] [nM] | neuroprotective effect against Fe^2+-induced oxidative neuronal death relative to vitamin E ([1]; higher than vitamin E) [times] | BSO-induced free radical neurotoxicity, effect in words [2] | BSO-induced neuronal death (oxidative stress), effect in words ([2]; listed as 2-hydroxy TTBA) | BSO-induced neuronal death (oxidative stress), effect in words ([2]; listed as 2-hydroxy-TTBA) | cyclosporine A-induced neuronal cell apoptosis, effect in words [3] | mRNA expression of TNF-a and IL-16, cytokines inducing inflammation (G93A mice) | fluorescence intensity of nitrotyrosine (oxidative toxicity) in motor neurons (G93A mouse)
O=C(O)c1cc(NCc2c(F)c(F)c(C(F)(F)F)c(F)c2F)ccc1O [2-Hydroxy-TTBA, 2-hydroxy-5-(2,3,5,6-tetrafluoro-4-trifluoromethyl-benzylamino)-benzoic acid] | nearly completely blocked | prevents oxidative stress | completely blocked | 110 | 220 | nearly completely blocked | prevents oxidative stress | completely blocked | not attenuated; also recorded: do not attenuate | – | –
O=C(O)c1cc(NCCc2ccc(C(F)(F)F)cc2)ccc1O [chemical 01, 2-Hydroxy-5-[2-(4-trifluoromethyl-phenyl)-ethylamino]-benzoic acid] | nearly completely blocked | – | – | 99 | – | nearly completely blocked | – | – | not attenuated; also recorded: do not attenuate | effectively reduced | decreased

From US20120301551A1, “COMPOUNDS AND COMPOSITIONS FOR TREATING NEURONAL DEATH OR NEUROLOGICAL DYSFUNCTION” (Neurotech Pharmaceuticals Co., Ltd., priority 2005, published 2012)
